US11566007B2, “Ras inhibitors” (Revolution Medicines, Inc., priority 2019, dated 2023)
“And” between values parts separate entries of the source, which are not always exact repeats. Identical values can stand only once. Like-named read-outs stand apart in the source and are kept apart here.

Assays:
KRAS G12S = KRAS G12S (Homo sapiens (Human), UniProt P01116+P62937, G12S); assay: Ras-Raf (BRAF RBD) disruption / FRET / MOA assay, KRAS G12S; format: biochemical; settings: class symbols
In short: (§1)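 Compound-driven ternary complex of nucleotide-loaded Ras with cyclophilin A, disrupting BRAF RBD binding. 10-point 3-fold dilution from 30 μM final, 3 h at 25° C, then anti-His Eu-W1024 (10 nM) and anti-GST allophycocyanin (50 nM) for 1.5 h. IC50 from TR-FRET ratio decrease versus DMSO.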

NCI-H358 (K-Ras G12C) = assay: CellTiter-Glo cell viability assay, NCI-H358; format: cell-based, human; settings: NCI-H358, 5-day treatment, class symbols, read-out: Additional H358 Cell Viability assay data (K-Ras G12C, IC50)
In short: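 Luminescent viability readout on day 5 after direct compound addition to plated cells; plates sat ~30 min at room temperature before reading. Values expressed as percent of mean DMSO signal, curves fit with a four-parameter logistic model.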

KRAS WT = KRAS WT (Homo sapiens (Human), UniProt P01116+P62937); assay: Ras-Raf (BRAF RBD) disruption / FRET / MOA assay, KRAS WT; format: biochemical
Procedure: (§2) The purpose of this biochemical assay is to measure the ability of test compounds to facilitate ternary complex formation between a nucleotide-loaded Ras isoform and cyclophilin A; the resulting ternary complex disrupts binding to a BRAF^RBD construct, inhibiting Ras signaling through a RAF effector.
(§3) Compound is present in plate wells as a 10-point 3-fold dilution series starting at a final concentration of 30 μM. After incubation at 25° C. for 3 hours, a mixture of Anti-His Eu-W1024 and anti-GST allophycocyanin is then added to assay sample wells at final concentrations of 10 nM and 50 nM, respectively, and the reaction incubated for an additional 1.5 hours. […] Compounds that facilitate disruption of a Ras:RAF complex are identified as those eliciting a decrease in the TR-FRET ratio relative to DMSO control wells.
(§4) This protocol may also be executed substituting other Ras proteins or nucleotides.
(§5) The purpose of this biochemical assay was to measure the ability of test compounds to facilitate ternary complex formation between a nucleotide-loaded K-Ras isoform and Cyclophilin A; the resulting ternary complex disrupts binding to a BRAF^RBD construct, inhibiting K-Ras signaling through a RAF effector. Data is reported as IC50 values.
as §3, with “Compound was” for “Compound is”, “allophycocyanin was” for “allophycocyanin is”, “a K-Ras:RAF” for “a Ras:RAF”, “complex were” for “complex are”

K-Ras G12C = K-Ras G12C (Homo sapiens (Human), UniProt P01116+P62937, G12C); assay: Ras-Raf (BRAF RBD) disruption / FRET / MOA assay, KRAS G12C; format: biochemical; settings: KRAS G12C, Ras-Raf disruption/FRET/MOA assay
Procedure: as §2, §3, §4, §5
as §3, with “Compound was” for “Compound is”, “allophycocyanin was” for “allophycocyanin is”, “a K-Ras:RAF” for “a Ras:RAF”, “complex were” for “complex are”

KRAS G12V = KRAS G12V (Homo sapiens (Human), UniProt P01116+P62937, G12V); assay: Ras-Raf (BRAF RBD) disruption / FRET / MOA assay, KRAS G12V; format: biochemical
Procedure: as §2, §3, §4, §5
as §3, with “Compound was” for “Compound is”, “allophycocyanin was” for “allophycocyanin is”, “a K-Ras:RAF” for “a Ras:RAF”, “complex were” for “complex are”

KRAS G13D = KRAS G13D (Homo sapiens (Human), UniProt P01116+P62937, G13D); assay: Ras-Raf (BRAF RBD) disruption / FRET / MOA assay, KRAS G13D; format: biochemical
Procedure: as §2, §3, §4, §5
as §3, with “Compound was” for “Compound is”, “allophycocyanin was” for “allophycocyanin is”, “a K-Ras:RAF” for “a Ras:RAF”, “complex were” for “complex are”

KRAS G12D = KRAS G12D (Homo sapiens (Human), UniProt P01116+P62937, G12D); assay: Ras-Raf (BRAF RBD) disruption / FRET / MOA assay, KRAS G12D; format: biochemical; settings: class symbols
In short: as §1

[1] = test system: NCI-H358 cells (K-Ras G12C); assay: Potency assay: pERK in NCI-H358 cells; format: cell-based, human; settings: H358 KRAS G12C, read-out: pERK EC50
In short: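 Compounds are dosed as ten 3-fold dilutions from a 10 mM DMSO stock, in duplicate, and left on cells for 4 h at 37 °C, 5% CO2. Phospho-ERK1/2 is then quantified by AlphaLISA SureFire Ultra or In-Cell Western, and IC50 is derived from a 4-parameter sigmoid against log concentration.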

NRAS G12C = NRAS G12C (Homo sapiens (Human), UniProt P01111+P62937, G12C); assay: Ras-Raf (BRAF RBD) disruption / FRET / MOA assay, NRAS G12C; format: biochemical
Procedure: as §2, §3
This protocol may also be executed substituting other Ras proteins or nucleotides. […]

K-Ras G13C = K-Ras G13C (Homo sapiens (Human), UniProt P01116+P62937, G13C); assay: Ras-Raf (BRAF RBD) disruption / FRET / MOA assay, KRAS G13C; format: biochemical; settings: KRAS G13C, Ras-Raf disruption/FRET/MOA assay
Procedure: as §2, §3, §4, §5
as §3, with “Compound was” for “Compound is”, “allophycocyanin was” for “allophycocyanin is”, “a K-Ras:RAF” for “a Ras:RAF”, “complex were” for “complex are”

[2] = Ras-Raf disruption/FRET/MOA assay, read-out: KRAS G12S FRET data IC50
[3] = read-out: IC50* KRAS WT FRET data
[4] = read-out: IC50* KRAS G12C FRET data
[5] = read-out: IC50* KRAS G12V FRET data
[6] = read-out: IC50* KRAS G13D FRET data
[7] = Ras-Raf disruption/FRET/MOA assay, read-out: KRAS G12D FRET data IC50
[8] = read-out: IC50* NRAS G12C FRET data
[9] = read-out: IC50* KRAS G13C FRET data

Sequence of KRAS WT (P01116-2 other isoform, or with tags, fused parts or gaps): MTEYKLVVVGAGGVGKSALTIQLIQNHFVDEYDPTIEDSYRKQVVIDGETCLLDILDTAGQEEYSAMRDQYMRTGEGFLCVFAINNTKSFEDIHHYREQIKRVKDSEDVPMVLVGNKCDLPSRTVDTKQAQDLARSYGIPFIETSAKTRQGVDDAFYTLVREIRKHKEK
Sequence of KRAS WT (P62937 whole entry, canonical isoform): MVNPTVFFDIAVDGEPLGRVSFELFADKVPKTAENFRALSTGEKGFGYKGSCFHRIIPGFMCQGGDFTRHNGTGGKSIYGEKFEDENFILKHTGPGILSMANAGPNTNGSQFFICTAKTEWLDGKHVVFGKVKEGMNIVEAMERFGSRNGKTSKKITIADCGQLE
Sequence of K-Ras G13C (P01116-2 other isoform, or with tags, fused parts or gaps G13C): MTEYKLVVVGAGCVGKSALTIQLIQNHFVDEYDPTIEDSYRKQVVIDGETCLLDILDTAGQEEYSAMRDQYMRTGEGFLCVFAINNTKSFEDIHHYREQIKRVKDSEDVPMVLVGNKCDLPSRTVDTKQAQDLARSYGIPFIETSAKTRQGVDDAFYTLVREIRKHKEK
Sequence of K-Ras G13C (P62937 whole entry): as the sequence (P62937 whole entry, canonical isoform) above
Sequence of K-Ras G12C (P01116-2 other isoform, or with tags, fused parts or gaps G12C): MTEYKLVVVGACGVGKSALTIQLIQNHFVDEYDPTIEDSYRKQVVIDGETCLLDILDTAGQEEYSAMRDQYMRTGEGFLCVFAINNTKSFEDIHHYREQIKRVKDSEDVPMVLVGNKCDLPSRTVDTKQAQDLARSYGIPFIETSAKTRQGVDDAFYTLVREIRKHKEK
Sequence of K-Ras G12C (P62937 whole entry): as the sequence (P62937 whole entry, canonical isoform) above
Sequence of KRAS G12V (P01116-2 other isoform, or with tags, fused parts or gaps G12V): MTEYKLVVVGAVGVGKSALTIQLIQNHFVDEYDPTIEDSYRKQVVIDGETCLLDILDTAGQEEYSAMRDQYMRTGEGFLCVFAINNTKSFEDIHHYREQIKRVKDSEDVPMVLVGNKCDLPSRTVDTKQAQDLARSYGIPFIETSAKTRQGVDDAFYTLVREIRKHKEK
Sequence of KRAS G12V (P62937 whole entry): as the sequence (P62937 whole entry, canonical isoform) above
Sequence of KRAS G12S (P01116-2 other isoform, or with tags, fused parts or gaps G12S): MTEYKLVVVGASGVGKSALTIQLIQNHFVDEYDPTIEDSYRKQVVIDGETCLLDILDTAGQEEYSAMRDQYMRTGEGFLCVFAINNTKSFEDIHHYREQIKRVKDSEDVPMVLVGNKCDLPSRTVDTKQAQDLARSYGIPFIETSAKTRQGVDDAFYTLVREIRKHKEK
Sequence of KRAS G12S (P62937 whole entry): as the sequence (P62937 whole entry, canonical isoform) above
Sequence of NRAS G12C (P01111 whole entry G12C): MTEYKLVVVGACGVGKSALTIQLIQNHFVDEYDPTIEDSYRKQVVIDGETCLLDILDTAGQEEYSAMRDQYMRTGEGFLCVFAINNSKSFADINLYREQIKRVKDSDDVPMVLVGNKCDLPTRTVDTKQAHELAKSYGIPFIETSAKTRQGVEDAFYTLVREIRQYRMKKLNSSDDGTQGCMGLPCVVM
Sequence of NRAS G12C (P62937 whole entry): as the sequence (P62937 whole entry, canonical isoform) above
Sequence of KRAS G12D (P01116-2 other isoform, or with tags, fused parts or gaps G12D): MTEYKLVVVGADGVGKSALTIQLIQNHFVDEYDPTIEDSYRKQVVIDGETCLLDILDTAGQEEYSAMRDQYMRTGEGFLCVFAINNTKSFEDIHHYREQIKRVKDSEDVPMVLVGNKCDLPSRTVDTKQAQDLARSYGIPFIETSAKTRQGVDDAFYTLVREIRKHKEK
Sequence of KRAS G12D (P62937 whole entry): as the sequence (P62937 whole entry, canonical isoform) above
Sequence of KRAS G13D (P01116-2 other isoform, or with tags, fused parts or gaps G13D): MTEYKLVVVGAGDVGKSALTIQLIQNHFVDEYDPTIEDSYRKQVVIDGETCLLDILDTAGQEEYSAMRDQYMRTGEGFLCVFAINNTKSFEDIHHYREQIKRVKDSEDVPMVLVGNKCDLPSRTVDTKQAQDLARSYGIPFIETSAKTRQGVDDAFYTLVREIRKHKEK
Sequence of KRAS G13D (P62937 whole entry): as the sequence (P62937 whole entry, canonical isoform) above

Structure (SMILES)	IC50 (KRAS G12S; [2]) [µM]	IC50 (NCI-H358 (K-Ras G12C); Homo sapiens, NCI-H358, 120 h) [µM]	IC50 (KRAS WT; [3])	IC50 (K-Ras G12C; [4])	IC50 (KRAS G12V; [5])	IC50 (KRAS G13D; [6]) [µM]	IC50 (KRAS G12D; [7]) [µM]	EC50 [1] [µM]	IC50 (NRAS G12C; [8])	IC50 (K-Ras G13C; [9])	EC50 ([1]; Homo sapiens, NCI-H358) [µM]	IC50 (KRAS G12S; KRAS G12S FRET data IC50, Ras-Raf disruption/FRET/MOA assay) [µM]	IC50 (KRAS WT; IC50* KRAS WT FRET data) [µM]	IC50 (K-Ras G12C; IC50* KRAS G12C FRET data) [µM]	IC50 (NRAS G12C; IC50* NRAS G12C FRET data) [µM]	IC50 (KRAS G12V; IC50* KRAS G12V FRET data) [µM]	IC50 (K-Ras G13C; IC50* KRAS G13C FRET data) [µM]	IC50 (KRAS G13D; IC50* KRAS G13D FRET data) [µM]	IC50 (KRAS G12D; KRAS G12D FRET data IC50, Ras-Raf disruption/FRET/MOA assay) [µM]	IC50 (NCI-H358 (K-Ras G12C)) [µM]
CCn1c(-c2cnccc2COC)c2c3cc(ccc31)-c1cc(O)cc(c1)C[C@H](NC(=O)[C@H](C(C)C)N(C)C(=O)[C@H]1CCN(C(=O)C#CCN(C)C)C1)C(=O)N1CCC[C@H](N1)C(=O)OCC(C)(C)C2 (atropisomer, axis not shown) [Example A107]	0.1 to 1	< 0.01	0.1 to 1 µM	< 0.01 µM	0.1 to 1 µM	0.1 to 1	0.1 to 1	< 5												
C=CC(=O)N1CC[C@H](C(=O)N(C)[C@H](C(=O)N[C@H]2Cc3cccc(c3)-c3ccc4c(c3)c(c(-c3cnccc3COC)n4CC)CC(C)(C)COC(=O)[C@@H]3CCCN(N3)C2=O)C(C)C)C1 (atropisomer, axis not shown) [Example A119]	1 to 10	0.01 to 0.1		0.1 to 1 µM	> 10 µM	> 10	> 10		0.1 to 1 µM	1 to 10 µM	< 5									
CCn1c(-c2cccnc2[C@H](C)OC)c2c3cc(ccc31)-c1cccc(c1)C[C@H](NC(=O)[C@H](C(C)C)N(C)C(=O)[C@H]1CCN(C(=O)/C=C/CN3CC(OC)C3)C1)C(=O)N1CCC[C@H](N1)C(=O)OCC(C)(C)C2 (atropisomer, axis not shown) [Example A204]	1 to 10		1 to 10 µM	0.01 to 0.1 µM	1 to 10 µM		> 10		0.01 to 0.1 µM	1 to 10 µM	< 5									
C=CC(=O)Nc1ccc(C(=O)N(C)[C@H](C(=O)N[C@H]2Cc3cc(O)cc(c3)-c3ccc4c(c3)c(c(-c3cccnc3[C@H](C)OC)n4CC)CC(C)(C)COC(=O)[C@@H]3CCCN(N3)C2=O)C(C)C)cn1 (atropisomer, axis not shown) [Example A336]	0.1 to 1		0.1 to 1 µM		0.1 to 1 µM	0.1 to 1	1 to 10	< 5	< 0.01 µM	< 0.01 µM										
C=CC(=O)N1CC(CN2C(=O)O[C@H](C)[C@H]2C(=O)N[C@H]2Cc3cccc(c3)-c3ccc4c(c3)c(c(-c3cccnc3[C@H](C)OC)n4CC)CC(C)(C)COC(=O)[C@@H]3CCCN(N3)C2=O)C1 (atropisomer, axis not shown) [Example A460]												> 10	> 10	1 to 10	1 to 10	> 10	1 to 10	> 10	> 10	
C=CC(=O)N1CCN(C(=O)N(C)[C@H](C(=O)N[C@H]2Cc3nc(cs3)-c3ccc4c(c3)c(c(-c3cccnc3[C@H](C)OC)n4CC(F)(F)F)CC(C)(C)COC(=O)[C@@H]3CCCN(N3)C2=O)C(C)C)CC1 (atropisomer, axis not shown) [Example A465]	0.01 to 0.1		0.01 to 0.1 µM	0.01 to 0.1 µM		0.01 to 0.1	0.01 to 0.1	< 5	0.01 to 0.1 µM	0.01 to 0.1 µM										
C=CC(=O)N1CCC(C(=O)N(C)[C@H](C(=O)N[C@H]2CCC(=O)N(C)Cc3ccc4c(c3)c(c(-c3cccnc3[C@H](C)OC)n4CC)CC(C)(C)COC(=O)[C@@H]3CCCN(N3)C2=O)C(C)C)C1 (atropisomer, axis not shown) [Example A500]	> 10	> 1	> 10 µM		> 10 µM		> 10		> 10 µM	> 10 µM										
C=CC(=O)N1CC[C@H](C(=O)N(C)[C@H](C(=O)N[C@H]2Cc3cccc(c3)-c3ccc4c(c3)c(c(-c3cc(C5=CCN(C)CC5)cnc3[C@H](C)OC)n4CC)CC(C)(C)COC(=O)[C@@H]3CCCN(N3)C2=O)C(C)C)C1 (atropisomer, axis not shown) [Example A514]	> 10		> 10 µM	1 to 10 µM	> 10 µM	> 10	> 10		1 to 10 µM	1 to 10 µM										
C=CC(=O)N1CC[C@H](C(=O)N(C)[C@H](C(=O)NC2C[C@H]3CN(CCCO3)c3ccc4c(c3)c(c(-c3cccnc3[C@H](C)OC)n4CC)CC(C)(C)COC(=O)[C@@H]3CCCN(N3)C2=O)C(C)C)C1 (single isomer, unassigned) [Example A405]	> 10	> 1	> 10 µM		> 10 µM	> 10	> 10		> 10 µM	> 10 µM										
CCn1c(-c2cccnc2COC)c2c3cc(ccc31)-c1cc(O)cc(c1)C[C@H](NC(=O)[C@H](C(C)C)N(C)C(=O)[C@H]1CCN(C(=O)C#CCN3CCOCC3)C1)C(=O)N1CCC[C@H](N1)C(=O)OCC(C)(C)C2 [Example A095]	0.1 to 1		1 to 10 µM		0.1 to 1 µM	1 to 10	> 10			0.1 to 1 µM										
CCn1c(-c2cccnc2COC)c2c3cc(ccc31)-c1cc(C)cc(c1)C[C@H](NC(=O)[C@H](C(C)C)N(C)C(=O)[C@H]1CCN(C(=O)C#CCN(C)C)C1)C(=O)N1CCC[C@H](N1)C(=O)OCC(C)(C)C2 [Example A157]	> 10			< 0.01 µM			1 to 10	< 5	< 0.01 µM	0.1 to 1 µM										
CCn1c(-c2cccnc2[C@H](C)OC)c2c3cc(ccc31)-c1cc(O)cc(c1)C[C@H](NC(=O)[C@H](C(C)C)N(C)C(=O)[C@H]1CCN(C(=O)C#CC3(N(C)C)COC3)C1)C(=O)N1CCC[C@H](N1)C(=O)OCC(C)(C)C2 [Example A246]	0.1 to 1	< 0.01	0.1 to 1 µM		0.1 to 1 µM	0.1 to 1	1 to 10			0.01 to 0.1 µM	< 5									
C=CC(=O)Nc1cnc(C(=O)N(C)[C@H](C(=O)N[C@H]2Cc3cc(O)cc(c3)-c3ccc4c(c3)c(c(-c3cccnc3[C@H](C)OC)n4CC)CC(C)(C)COC(=O)[C@@H]3CCCN(N3)C2=O)C(C)C)n1C [Example A334]	0.01 to 0.1		0.1 to 1 µM and 0.01 to 0.1 µM	< 0.01 µM and 0.01 to 0.1 µM	0.1 to 1 µM and 0.01 to 0.1 µM		0.1 to 1		< 0.01 µM and 0.01 to 0.1 µM	0.01 to 0.1 µM and < 0.01 µM	< 5									< 0.01
CCn1c(-c2cccnc2[C@H](C)OC)c2c3cc(ccc31)-c1cc(O)cc(c1)C[C@H](NC(=O)[C@H](C(C)C)N(C)C(=O)[C@H]1CCN(C(=O)C#CC3(N(C)C)COC3)C1)C(=O)N1CCC[C@H](N1)C(=O)OCC(C)(C)C2 [Example A337]	0.1 to 1			< 0.01 µM			1 to 10	< 5	< 0.01 µM											< 0.01
